{"source": "patent US20040248801A1", "about": "“Methods and reagents for regulation of cellular responses in biological systems” (priority 2000, published 2004)", "key": {"[1]": {"target": "glucose/galactose-binding protein (GGBP) (Escherichia coli, UniProt P0AEE5)", "sequence (P0AEE5 24-332 limits assumed)": "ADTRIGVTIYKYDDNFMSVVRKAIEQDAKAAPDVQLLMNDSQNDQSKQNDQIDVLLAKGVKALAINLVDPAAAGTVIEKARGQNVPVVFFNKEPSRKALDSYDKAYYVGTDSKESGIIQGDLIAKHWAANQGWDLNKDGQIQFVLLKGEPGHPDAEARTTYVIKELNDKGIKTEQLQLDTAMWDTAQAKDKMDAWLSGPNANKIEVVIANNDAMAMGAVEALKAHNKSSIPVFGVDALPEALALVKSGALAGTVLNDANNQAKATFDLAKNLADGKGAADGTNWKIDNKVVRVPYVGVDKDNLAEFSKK", "assay": "in vitro binding assay with purified GGBP", "text": "The molecular events leading to bacterial chemotaxis have been well studied, and the process has served as a general model for receptor-mediated responses. During chemotaxis in Escherichia coli, chemoattractants, such as sugars and amino acids, and chemorepellents are recognized by specific receptors at the bacterial plasma membrane. For these investigations of multivalent ligand activity, galactose was selected as a model chemoattractant. […] For galactose-mediated signaling, the saccharide must bind to the soluble periplasmic glucose/galactose-binding protein (GGBP), which, in turn, interacts with the galactose-sensing chemoreceptor, Trg. Galactose-GGBP binding to Trg initiates a signaling pathway that results in reversal of the direction of flagellar spin, allowing the bacteria to swim towards the nutrient.\nGalactose-bearing ligands 1-4 of varying defined valencies were generated using ROMP methods (Scheme 1). The galactose residues in the multivalent ligands are tethered to the molecular scaffold (polymer backbone) via a short linker."}, "E. coli": {"test_system": "E. coli", "assay": "E. coli capillary accumulation assay", "format": "cell-based, Escherichia coli", "description": "FIGS. 3A and 3B: Results of E. coli capillary accumulation assays. The number of bacteria accumulated is plotted versus the concentration of the attractant (galactose or compounds 1-4, Scheme 1) calculated on a saccharide residue basis. (A): Results are shown for capillaries filled with buffer alone, compound 1, and compound 2 or (B): buffer alone, compound 3 and compound 4 at the indicated concentrations. The vertical line at 1 mM indicates the concentration of maximum chemotaxis for the monomeric compound 1. […] Results are the average of 3 to 6 experiments performed in duplicate and error bars represent a single standard deviation. Partial permeabilization was required to obtain chemotaxis towards 4, and was utilized for all experiments.\nE. coli were subjected to concentration gradients of compounds 1-4 in capillary accumulation assays to determine the concentration at which the maximum chemotactic response is achieved and the number of bacteria that accumulate at this maximum.\nConcentrations of maximum chemotaxis of 3 and 4 are 100- and 5000-fold lower, respectively, than free galactose (FIG. 3B). […]\n(§1) E. coli from an overnight culture were grown in LB to OD550 0.4-0.6, washed twice with E. coli chemotaxis buffer, and then partially permeabilized. […] Data was analyzed using the Q and Students tests."}, "E. coli AW405": {"test_system": "E. coli AW405", "assay": "video microscopy motion analysis of bacteria", "format": "cell-based, Escherichia coli", "settings": "first 5-15 seconds after addition of attractant", "description": "FIG. 2A: Results of video microscopy motion analysis experiments. Bacteria (Escherichia coli) were treated with buffer alone, galactose, or compound 1 or 3 (Scheme 1) at the indicated saccharide concentrations. The results represent the average from at least five independent experiments performed in triplicate. Error bars represent the deviation between per-second averages during the ten second interval.\nLigands functionalized with galactose such as monovalent ligand 1 and multivalent ligand 3, also serve as attractants in vivo. […] To observe the effects of synthetic ligands on tumbling frequency, E. coli were treated with galactose or galactose-bearing ligands, and bacterial motion was recorded and analyzed using the method of Sager et al.. The tumbling frequency was assessed by averaging the mean angular velocity of the paths obtained in the first 5-15 seconds after addition of attractant (FIG. 2A). […]\nPartially permeabilized bacteria (25 μM EDTA for 3 min. at room temperature, then quench with 50 μM CaCl2) at an OD550 of 0.1 were placed under a cover slip supported by additional cover slips in the method of Sager et al.. […] The bacterial motion at 28° C. was recorded, and the paths were analyzed using the ExpertVision system. Paths derived from the first 5 to 15 seconds following the introduction of attractant were analyzed. […] Data were analyzed using the Q and Students tests."}, "B. subtilis 011085": {"test_system": "B. subtilis 011085", "assay": "B. subtilis capillary accumulation assay", "format": "cell-based, Bacillus subtilis", "text": "FIG. 4: Results of B. subtilis capillary accumulation assays using ROMP-derived glucose ligands (compound 5-7, Scheme 1). Buffer alone, glucose, or glucose-bearing compounds 5-7 were used as attractants in the capillary accumulation assay. Results are shown for glucose, compound 5, compound 6, and compound 7. Results are the average of at least four trials performed in duplicate and error bars represent single standard deviations.\nTo test the generality of the observed valency-dependent differences in chemotactic activities and to investigate the role of membrane permeability in responses to our ligands, chemotactic experiments in B. subtilis were conducted. B. subtilis is a gram-positive bacterium that, like gram-negative E. coli, is able to respond to saccharide chemoattractants. In the case of B. subtilis, the multivalent ligands can directly interact with saccharide-sensing receptors, without having to first traverse the outer membrane. Glucose is a chemoattractant for B. subtilis, but galactose is not. Glucose-carrying ligands (compounds 5-7, Scheme 1) were effective chemoattractants for B. subtilis as shown in capillary accumulation assays. […] Free chemoattractant signal glucose had maximal activity as a chemoattractant at 0.5 mM. In analogy to observations with E. coli, as the valency of the ligand increases, the saccharide residue concentration of maximum chemotaxis decreases. […] The results observed indicate that in evolutionarily divergent bacteria E. coli and B. subtilis, the valency of the attractant influences chemotactic response.\nas §1, with “permeabilized. Bacteria were resuspended in chemotaxis buffer to an OD550 0.1 and utilized in the capillary accumulation assay at 30° C. for 60 min, as previously described.” for “permeabilized.”"}}}
{"smiles": "O=C(NCCOC1OC(CO)C(O)C(O)C1O)C1C[C@@H]2C=CC1C2", "note": "(some centres unmarked) [Compound 1]", "values": [{"measurement": "interaction with purified GGBP compared with galactose", "setting": "[1]", "value": "at least as favorable as that of galactose"}, {"measurement": "chemoattractant activity in mutants", "setting": "E. coli; ggbp (AW550 and AW543) or trg (AW701) E. coli mutants", "value": "not a chemoattractant"}, {"measurement": "concentration of maximum chemotaxis", "setting": "E. coli; saccharide (galactose) residue basis, partially permeabilized E. coli, 30° C., 60 min", "value": 1, "unit": "mM"}, {"measurement": "mean angular velocity (tumbling frequency) after addition of attractant", "setting": "E. coli AW405", "value": "produced similar effects to that of the free chemoattractant"}, {"measurement": "chemoattractant activity for B. subtilis", "setting": "B. subtilis 011085", "value": "not chemoattractants"}]}
